Measured values as given in ChEMBL document CHEMBL6178016, “Design, Synthesis, and Biological Evaluation of New PDE4 Inhibitors for the Treatment of Pressure Ulcers” (J Med Chem, 2025).
Active and inactive are the calls of the source. No cut-off for these calls is given here.

Experiments:
[1] = molecular target: Cytochrome P450 2C9 (Homo sapiens, UniProt P11712); assay: Inhibition of human CYP2C9; assay type: ADME
[2] = molecular target: Dual specificity calcium/calmodulin-dependent 3',5'-cyclic nucleotide phosphodiesterase 1A (Homo sapiens, UniProt P54750); assay: Inhibition of PDE1A (unknown origin)
Dual specificity calcium/calmodulin-dependent 3',5'-cyclic nucleotide phosphodiesterase 1A, sequence (P54750 whole entry): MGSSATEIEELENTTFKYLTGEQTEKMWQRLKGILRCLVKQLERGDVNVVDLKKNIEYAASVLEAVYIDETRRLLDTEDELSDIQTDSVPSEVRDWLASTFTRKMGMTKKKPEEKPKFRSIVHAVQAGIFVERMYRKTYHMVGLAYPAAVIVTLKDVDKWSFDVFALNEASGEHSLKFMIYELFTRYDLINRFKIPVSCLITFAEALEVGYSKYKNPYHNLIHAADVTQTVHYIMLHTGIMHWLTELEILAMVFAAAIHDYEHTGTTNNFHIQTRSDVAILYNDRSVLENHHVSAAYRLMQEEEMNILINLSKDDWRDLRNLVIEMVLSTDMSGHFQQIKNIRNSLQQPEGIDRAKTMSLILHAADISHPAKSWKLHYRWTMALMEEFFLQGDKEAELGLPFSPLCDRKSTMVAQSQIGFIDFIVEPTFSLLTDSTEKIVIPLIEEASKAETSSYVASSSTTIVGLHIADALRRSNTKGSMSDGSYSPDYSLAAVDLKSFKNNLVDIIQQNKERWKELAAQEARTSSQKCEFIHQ

[3] = Acute toxicity in female Kunming mouse assessed as effect on pathological changes in kidney at 500 to 4000 mg/kg measured after 14 days by H and E staining based analysis; assay type: organism-based; conditions: in vivo, 336 h, dose 500-4000 mg/kg, time 14 day
[4] = molecular target: High affinity cGMP-specific 3',5'-cyclic phosphodiesterase 9A (Homo sapiens, UniProt O76083); assay: Inhibition of PDE9A (unknown origin)
High affinity cGMP-specific 3',5'-cyclic phosphodiesterase 9A, sequence (O76083 whole entry): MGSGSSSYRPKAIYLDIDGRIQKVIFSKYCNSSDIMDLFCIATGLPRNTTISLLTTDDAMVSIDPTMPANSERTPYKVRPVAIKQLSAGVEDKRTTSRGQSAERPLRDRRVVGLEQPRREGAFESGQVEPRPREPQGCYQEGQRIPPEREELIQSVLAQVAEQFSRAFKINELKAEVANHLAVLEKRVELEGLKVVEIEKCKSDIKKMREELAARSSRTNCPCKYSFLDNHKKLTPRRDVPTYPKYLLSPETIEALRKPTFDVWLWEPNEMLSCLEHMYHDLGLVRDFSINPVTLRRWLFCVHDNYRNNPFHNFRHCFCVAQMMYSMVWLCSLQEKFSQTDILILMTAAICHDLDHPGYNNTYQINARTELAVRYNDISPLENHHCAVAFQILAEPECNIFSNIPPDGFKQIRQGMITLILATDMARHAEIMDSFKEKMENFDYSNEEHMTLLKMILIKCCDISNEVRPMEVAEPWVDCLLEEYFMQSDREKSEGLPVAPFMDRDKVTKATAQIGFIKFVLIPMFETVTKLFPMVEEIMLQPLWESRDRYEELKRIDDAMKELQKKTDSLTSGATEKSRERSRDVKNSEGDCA

[5] = AUC (0 to infinity) in Sprague-Dawley rat at 5 mg/kg, iv; assay type: ADME, organism-based; conditions: in vivo
[6] = test system: Rattus norvegicus; assay: Antiinflammatory activity against male Sprague-Dawley rat pressure ulcer model assessed as reduction in TNF-alpha mRNA expression in skin at 1.25% administered as ointment by qRT-PCR analysis; assay type: functional, organism-based
[7] = AUC (0 to t) in Sprague-Dawley rat at 10 mg/kg, po; assay type: ADME, organism-based; conditions: in vivo
[8] = test system: Mus musculus; assay: Antiallodynic activity in female C57/BL mouse assessed as increase in response latency at 60 mg/kg, ip measured after 3 to 7 days by hot plate method; assay type: functional, organism-based; conditions: time 3-7 day
[9] = test system: RAW264.7; assay: Cytotoxicity against mouse RAW264.7 cells at 10 uM measured after 24 hrs by CCK-8 method; assay type: functional, cell-based
[10] = Acute toxicity in male Kunming mouse assessed as effect on pathological changes in liver at 500 to 4000 mg/kg measured after 14 days by H and E staining based analysis; assay type: organism-based; conditions: in vivo, 336 h, dose 500-4000 mg/kg, time 14 day
[11] = test system: RAW264.7; assay: Antiinflammatory activity against mouse RAW264.7 cells assessed as increase in cAMP expression at 5 to 20 uM by […] analysis; assay type: functional, cell-based; conditions: dose 5-20 µM
[12] = test system: Rattus norvegicus; assay: Antiinflammatory activity against male Sprague-Dawley rat pressure ulcer model assessed as appearance of orderly arranged cells at 0.625 to 2.5% administered as ointment by H and E staining based analysis; assay type: functional, organism-based
[13] = Toxicity in male Sprague-Dawley rat assessed as pathological changes in kidney by H and E staining based analysis; assay type: tissue-based; conditions: in vivo
[14] = molecular target: Dual 3',5'-cyclic-AMP and -GMP phosphodiesterase 11A (Homo sapiens, UniProt Q9HCR9); assay: Inhibition of PDE11A (unknown origin)
Dual 3',5'-cyclic-AMP and -GMP phosphodiesterase 11A, sequence (Q9HCR9 whole entry): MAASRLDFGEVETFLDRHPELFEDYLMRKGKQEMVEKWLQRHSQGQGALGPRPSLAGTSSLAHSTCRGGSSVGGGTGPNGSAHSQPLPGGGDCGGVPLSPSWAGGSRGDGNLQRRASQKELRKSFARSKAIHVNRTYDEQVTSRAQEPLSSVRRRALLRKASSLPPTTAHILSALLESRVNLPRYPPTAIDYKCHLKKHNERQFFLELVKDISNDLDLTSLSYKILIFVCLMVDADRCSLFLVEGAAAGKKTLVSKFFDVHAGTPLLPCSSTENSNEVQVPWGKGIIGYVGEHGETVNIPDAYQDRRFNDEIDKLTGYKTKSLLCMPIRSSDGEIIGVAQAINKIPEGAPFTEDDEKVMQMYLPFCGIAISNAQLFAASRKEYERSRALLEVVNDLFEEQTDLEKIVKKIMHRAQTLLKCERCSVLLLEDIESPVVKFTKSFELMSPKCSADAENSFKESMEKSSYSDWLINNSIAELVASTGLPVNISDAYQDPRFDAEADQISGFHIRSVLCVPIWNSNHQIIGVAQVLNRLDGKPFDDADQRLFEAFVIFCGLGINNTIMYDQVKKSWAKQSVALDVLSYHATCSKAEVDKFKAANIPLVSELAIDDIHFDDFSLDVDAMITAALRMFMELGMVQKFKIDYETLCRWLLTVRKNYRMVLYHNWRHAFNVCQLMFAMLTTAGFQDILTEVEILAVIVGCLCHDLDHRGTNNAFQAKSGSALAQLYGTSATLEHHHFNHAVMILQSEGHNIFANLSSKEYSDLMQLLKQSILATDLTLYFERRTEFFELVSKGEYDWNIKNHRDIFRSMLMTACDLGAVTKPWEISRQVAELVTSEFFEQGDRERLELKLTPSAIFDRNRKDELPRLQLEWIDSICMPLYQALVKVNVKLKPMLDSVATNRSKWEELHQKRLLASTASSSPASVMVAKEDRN

[15] = molecular target: cGMP-specific 3',5'-cyclic phosphodiesterase (Homo sapiens, UniProt O76074); assay: Inhibition of PDE5A (unknown origin)
[16] = test system: Rattus norvegicus; assay: Antiinflammatory activity against male Sprague-Dawley rat pressure ulcer model assessed as appearance of thinner epidermal layer at 0.625 to 2.5% administered as ointment by H and E staining based analysis; assay type: functional, organism-based
[17] = test system: RAW264.7; assay: Antiinflammatory activity against LPS induced mouse RAW264.7 cells assessed as increase in CREB phosphorylation expression at 5 to 20 uM by Western blot analysis; assay type: functional, cell-based; conditions: dose 5-20 µM
[18] = test system: Rattus norvegicus; assay: Antiinflammatory activity against male Sprague-Dawley rat pressure ulcer model assessed as appearance of thinner epidermal layer at 0.625 to 2.5% administered as ointment by Masson staining based analysis; assay type: functional, organism-based
[19] = Half life in Sprague-Dawley rat at 10 mg/kg, po; assay type: ADME, organism-based; conditions: in vivo
[20] = test system: RAW264.7; assay: Antiinflammatory activity against mouse RAW264.7 cells assessed as inhibition of LPS-induced TNF-alpha release preincubated for 2 hrs followed by LPS stimulation and measured after 4 hrs by RT-PCR analysis; assay type: functional, cell-based
[21] = Acute toxicity in female Kunming mouse assessed as effect on pathological changes in heart at 500 to 4000 mg/kg measured after 14 days by H and E staining based analysis; assay type: organism-based; conditions: in vivo, 336 h, dose 500-4000 mg/kg, time 14 day
[22] = molecular target: T1, 3',5'-cyclic-AMP phosphodiesterase 4D (Homo sapiens, UniProt Q08499); assay: Inhibition of PDE4D (unknown origin) at 1 uM relative to control
T1 sequence (Q08499 whole entry): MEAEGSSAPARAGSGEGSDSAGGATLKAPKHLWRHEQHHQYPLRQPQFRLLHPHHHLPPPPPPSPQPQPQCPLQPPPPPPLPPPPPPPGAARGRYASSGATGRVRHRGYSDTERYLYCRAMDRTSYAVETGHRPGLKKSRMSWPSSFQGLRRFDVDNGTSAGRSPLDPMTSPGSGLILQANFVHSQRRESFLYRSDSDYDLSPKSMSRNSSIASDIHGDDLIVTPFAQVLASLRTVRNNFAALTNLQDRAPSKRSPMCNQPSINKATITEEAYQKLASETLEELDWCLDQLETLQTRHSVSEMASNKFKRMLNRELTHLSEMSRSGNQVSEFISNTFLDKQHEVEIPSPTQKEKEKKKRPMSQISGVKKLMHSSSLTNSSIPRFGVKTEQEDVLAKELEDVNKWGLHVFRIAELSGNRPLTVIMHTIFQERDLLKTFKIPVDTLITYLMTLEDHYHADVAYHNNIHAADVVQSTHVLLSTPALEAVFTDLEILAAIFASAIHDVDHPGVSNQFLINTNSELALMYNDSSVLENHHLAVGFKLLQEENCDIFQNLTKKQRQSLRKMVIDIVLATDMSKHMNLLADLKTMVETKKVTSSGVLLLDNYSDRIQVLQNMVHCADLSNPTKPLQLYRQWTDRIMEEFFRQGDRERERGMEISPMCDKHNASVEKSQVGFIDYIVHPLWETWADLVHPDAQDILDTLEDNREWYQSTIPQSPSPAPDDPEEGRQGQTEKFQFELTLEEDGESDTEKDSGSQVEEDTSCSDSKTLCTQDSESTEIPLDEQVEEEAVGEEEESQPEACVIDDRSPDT

[23] = test system: Rattus norvegicus; assay: Antiinflammatory activity against male Sprague-Dawley rat pressure ulcer model assessed as increase in number of fibroblasts at 0.625 to 2.5% administered as ointment by Masson staining based analysis; assay type: functional, organism-based
[24] = test system: Rattus norvegicus; assay: Antiinflammatory activity against male Sprague-Dawley rat pressure ulcer model assessed as reduction in IL6 mRNA expression in skin at 1.25% administered as ointment by qRT-PCR analysis; assay type: functional, organism-based
[25] = test system: Rattus norvegicus; assay: Antiinflammatory activity against male Sprague-Dawley rat pressure ulcer model assessed as decrease in inflammatory cells in dermis at 0.625 to 2.5% administered as ointment by Masson staining based analysis; assay type: functional, organism-based
[26] = AUC (0 to infinity) in Sprague-Dawley rat at 10 mg/kg, po; assay type: ADME, organism-based; conditions: in vivo
[27] = Oral bioavailability in Sprague-Dawley rat at 10 mg/kg; assay type: ADME, organism-based; conditions: in vivo
[28] = test system: Rattus norvegicus; assay: Antiinflammatory activity against male Sprague-Dawley rat pressure ulcer model assessed as wound healing rate at 2.5% administration as ointment measured after 7 days (reference value: 70%); assay type: functional; conditions: time 7 day
[29] = molecular target: cAMP and cAMP-inhibited cGMP 3',5'-cyclic phosphodiesterase 10A (Homo sapiens, UniProt Q9Y233); assay: Inhibition of PDE10A (unknown origin)
[30] = molecular target: Cytochrome P450 2C19 (Homo sapiens, UniProt P33261); assay: Inhibition of human CYP2C19; assay type: ADME
Cytochrome P450 2C19, sequence (P33261 whole entry): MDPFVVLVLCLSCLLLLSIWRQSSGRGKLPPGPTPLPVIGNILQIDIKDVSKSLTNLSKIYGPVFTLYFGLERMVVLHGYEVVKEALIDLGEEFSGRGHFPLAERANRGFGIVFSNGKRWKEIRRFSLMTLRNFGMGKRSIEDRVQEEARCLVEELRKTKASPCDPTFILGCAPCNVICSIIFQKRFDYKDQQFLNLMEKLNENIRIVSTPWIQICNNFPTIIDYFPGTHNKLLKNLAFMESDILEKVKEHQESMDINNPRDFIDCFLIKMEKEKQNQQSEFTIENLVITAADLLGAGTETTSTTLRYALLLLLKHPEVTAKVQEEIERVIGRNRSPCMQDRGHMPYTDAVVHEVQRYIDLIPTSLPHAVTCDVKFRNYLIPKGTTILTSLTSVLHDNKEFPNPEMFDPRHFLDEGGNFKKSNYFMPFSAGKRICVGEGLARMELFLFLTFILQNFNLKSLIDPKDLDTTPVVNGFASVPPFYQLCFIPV

[31] = Toxicity in male Sprague-Dawley rat assessed as pathological changes in liver by H and E staining based analysis; assay type: tissue-based; conditions: in vivo
[32] = molecular target: cGMP-dependent 3',5'-cyclic phosphodiesterase (Homo sapiens, UniProt O00408); assay: Inhibition of PDE2A (unknown origin)
cGMP-dependent 3',5'-cyclic phosphodiesterase, sequence (O00408 whole entry): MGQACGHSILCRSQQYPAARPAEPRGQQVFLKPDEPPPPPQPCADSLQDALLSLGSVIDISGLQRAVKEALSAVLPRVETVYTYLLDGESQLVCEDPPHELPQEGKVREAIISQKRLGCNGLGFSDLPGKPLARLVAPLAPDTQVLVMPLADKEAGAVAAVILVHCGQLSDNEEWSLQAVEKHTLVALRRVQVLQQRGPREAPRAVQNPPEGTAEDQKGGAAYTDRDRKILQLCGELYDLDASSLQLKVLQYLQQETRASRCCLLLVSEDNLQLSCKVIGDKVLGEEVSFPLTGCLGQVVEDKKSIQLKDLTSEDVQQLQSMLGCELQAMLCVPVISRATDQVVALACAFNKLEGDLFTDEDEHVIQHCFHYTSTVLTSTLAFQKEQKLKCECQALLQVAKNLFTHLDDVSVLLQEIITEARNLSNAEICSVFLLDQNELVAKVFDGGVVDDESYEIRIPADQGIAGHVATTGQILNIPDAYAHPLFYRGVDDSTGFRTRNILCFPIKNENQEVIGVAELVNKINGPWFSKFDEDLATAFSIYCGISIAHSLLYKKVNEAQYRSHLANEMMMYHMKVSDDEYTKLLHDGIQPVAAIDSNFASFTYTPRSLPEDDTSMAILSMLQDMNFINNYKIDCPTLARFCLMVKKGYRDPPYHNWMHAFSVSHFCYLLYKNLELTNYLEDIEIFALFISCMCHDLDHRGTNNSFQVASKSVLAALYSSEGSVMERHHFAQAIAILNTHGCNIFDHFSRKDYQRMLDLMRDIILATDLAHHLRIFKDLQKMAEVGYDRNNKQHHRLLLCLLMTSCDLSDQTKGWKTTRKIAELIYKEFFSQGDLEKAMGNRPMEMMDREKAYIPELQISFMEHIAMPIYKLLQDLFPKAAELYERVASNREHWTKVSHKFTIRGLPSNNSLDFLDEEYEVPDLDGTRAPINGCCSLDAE

[33] = molecular target: T1, 3',5'-cyclic-AMP phosphodiesterase 4D; assay: Inhibition of PDE4D (unknown origin)
[34] = test system: RAW264.7; assay: Cytotoxicity against mouse RAW264.7 cells measured after 24 hrs by CCK-8 method; assay type: functional
[35] = test system: Rattus norvegicus; assay: Antiinflammatory activity against male Sprague-Dawley rat pressure ulcer model assessed as wound healing rate at 0.625% administration as ointment measured after 7 days (reference value: 70%); assay type: functional; conditions: time 7 day
[36] = test system: Rattus norvegicus; assay: Antiinflammatory activity against male Sprague-Dawley rat pressure ulcer model assessed as wound healing rate at 1.25% administration as ointment measured after 7 days (reference value: 70%); assay type: functional; conditions: time 7 day
[37] = Apparent volume of distribution in Sprague-Dawley rat at 5 mg/kg, iv; assay type: ADME, organism-based; conditions: in vivo, read-out: Vz
[38] = test system: Rattus norvegicus; assay: Antiinflammatory activity against male Sprague-Dawley rat pressure ulcer model assessed as increase in number of fibroblasts at 0.625 to 2.5% administered as ointment by H and E staining based analysis; assay type: functional, organism-based
[39] = Acute toxicity in female Kunming mouse assessed as effect on pathological changes in liver at 500 to 4000 mg/kg measured after 14 days by H and E staining based analysis; assay type: organism-based; conditions: in vivo, 336 h, dose 500-4000 mg/kg, time 14 day
[40] = Acute toxicity in male Kunming mouse assessed as effect on weight at 500 to 4000 mg/kg measured after 14 days; assay type: organism-based; conditions: in vivo, 336 h, dose 500-4000 mg/kg, time 14 day
[41] = Clearance in Sprague-Dawley rat at 5 mg/kg, iv; assay type: ADME, organism-based; conditions: in vivo
[42] = C0 in Sprague-Dawley rat at 5 mg/kg, iv; assay type: ADME, organism-based; conditions: in vivo
[43] = Half life in Sprague-Dawley rat at 5 mg/kg, iv; assay type: ADME, organism-based; conditions: in vivo

Cytochrome P450 2C9, sequence (P11712 whole entry): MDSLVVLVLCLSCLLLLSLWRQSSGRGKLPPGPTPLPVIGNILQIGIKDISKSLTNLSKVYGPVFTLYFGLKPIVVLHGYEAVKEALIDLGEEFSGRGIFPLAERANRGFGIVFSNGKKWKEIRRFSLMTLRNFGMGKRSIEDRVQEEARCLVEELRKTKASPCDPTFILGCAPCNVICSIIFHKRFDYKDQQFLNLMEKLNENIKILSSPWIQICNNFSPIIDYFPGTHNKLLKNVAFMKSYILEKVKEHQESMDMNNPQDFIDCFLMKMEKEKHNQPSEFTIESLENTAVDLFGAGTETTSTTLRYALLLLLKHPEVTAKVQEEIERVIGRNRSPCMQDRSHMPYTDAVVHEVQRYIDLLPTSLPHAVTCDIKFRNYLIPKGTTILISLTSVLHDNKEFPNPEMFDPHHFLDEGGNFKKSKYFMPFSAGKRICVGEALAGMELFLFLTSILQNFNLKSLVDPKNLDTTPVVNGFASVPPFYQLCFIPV

With `Cn1c(=O)c2c(ncn2CCC(=O)NNC(=O)c2cc3nccc(-c4ccc(OC(F)F)c(OCC5CC5)c4)n3n2)n(C)c1=O` the IC50 [1] was 24.7 µM, the IC50 [2] was over 50 µM and the Activity [3] was “Non-toxic”. The IC50 [4] was over 50 µM, the AUC(0-inf) [5] was 236 ng·h/mL and the Activity [6] was “Active”. For the same molecule, the AUC(0-t) [7] was 25.6 ng·h/mL, the Activity [8] was “Active” and the Activity [9] was “inactive”. The Activity [10] was “Non-toxic”, the Activity [11] was “Active” and the Activity [12] was “Active”. For the same molecule, the Activity [13] was “Non-toxic”, the IC50 [14] was over 50 µM and the IC50 [15] was over 50 µM. For the same molecule, the Activity [16] was “Active”, the Activity [17] was “Active” and the Activity [18] was “Active”. For the same molecule, the half-life [19] was 84 min, the IC50 [20] was 13.3 µM and the Activity [21] was “Non-toxic”. For the same molecule, the inhibition [22] was 95.8%, the Activity [23] was “Active” and the Activity [24] was “Active”. For the same molecule, the Activity [25] was “Active”, the AUC(0-inf) [26] was 26.8 ng·h/mL and the bioavailability [27] was 5.5%. It also gave an Activity [28] of 81%, an IC50 [29] of 1.12 µM and an IC50 [30] of over 50 µM. For the same molecule, the Activity [31] was “Non-toxic”, the IC50 [32] was over 50 µM and the IC50 [33] was 0.029 µM. It also gave a CC50 [34] of over 90 µM, an Activity [35] of 78% and an Activity [36] of 93%. The Vd [37] was 8.79 L/kg, the Activity [38] was “Active” and the Activity [39] was “Non-toxic”. The Activity [40] was “Non-toxic”, the clearance [41] was 358 mL/min/kg and the C0 [42] was 1140 ng/mL. The half-life [43] was 16.8 min.
